Experimental data reported in ChEMBL document CHEMBL1201862, “PubChem BioAssay data set” (2004).
Activity calls are given as the source filed them.

Experiments:
[1] = biological target: T1, Heat shock factor protein 1 (Mus musculus, UniProt P38532); assay: HSF1 potentiators in luciferase reporter cells, confirmation, cell-based, NIH3T3, luminescence, dose retest (AID 435004); format: functional;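 note: stress induced by proteasome inhibitor MG132 added 30 min after compound; luciferase reporter driven by HSF1 response element in NIH3T3 cells; actives raise luminescence as potentiators of the MG132 stress response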
T1 sequence (P38532 whole entry): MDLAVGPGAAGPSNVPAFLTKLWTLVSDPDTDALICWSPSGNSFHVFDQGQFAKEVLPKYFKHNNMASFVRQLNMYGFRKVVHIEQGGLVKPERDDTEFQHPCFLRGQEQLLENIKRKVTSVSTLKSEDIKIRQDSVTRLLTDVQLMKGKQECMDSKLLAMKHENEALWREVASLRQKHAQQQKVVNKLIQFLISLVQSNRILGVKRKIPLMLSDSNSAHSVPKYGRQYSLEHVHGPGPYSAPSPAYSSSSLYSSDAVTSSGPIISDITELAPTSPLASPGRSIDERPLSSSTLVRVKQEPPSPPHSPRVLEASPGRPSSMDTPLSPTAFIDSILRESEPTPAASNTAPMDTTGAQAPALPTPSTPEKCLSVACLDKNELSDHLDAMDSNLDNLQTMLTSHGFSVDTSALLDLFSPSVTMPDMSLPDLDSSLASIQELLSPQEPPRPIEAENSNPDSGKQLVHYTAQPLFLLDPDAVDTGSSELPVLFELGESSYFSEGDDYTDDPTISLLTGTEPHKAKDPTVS

[2] = biological target: T2, Replicative DNA helicase DnaB (Mycobacterium tuberculosis, UniProt P9WMR3); assay: DnaB intein splicing inhibitors, dose response, biochemical, cell-free fluorescence (AID 449749); format: functional
T2 sequence (P9WMR3 whole entry): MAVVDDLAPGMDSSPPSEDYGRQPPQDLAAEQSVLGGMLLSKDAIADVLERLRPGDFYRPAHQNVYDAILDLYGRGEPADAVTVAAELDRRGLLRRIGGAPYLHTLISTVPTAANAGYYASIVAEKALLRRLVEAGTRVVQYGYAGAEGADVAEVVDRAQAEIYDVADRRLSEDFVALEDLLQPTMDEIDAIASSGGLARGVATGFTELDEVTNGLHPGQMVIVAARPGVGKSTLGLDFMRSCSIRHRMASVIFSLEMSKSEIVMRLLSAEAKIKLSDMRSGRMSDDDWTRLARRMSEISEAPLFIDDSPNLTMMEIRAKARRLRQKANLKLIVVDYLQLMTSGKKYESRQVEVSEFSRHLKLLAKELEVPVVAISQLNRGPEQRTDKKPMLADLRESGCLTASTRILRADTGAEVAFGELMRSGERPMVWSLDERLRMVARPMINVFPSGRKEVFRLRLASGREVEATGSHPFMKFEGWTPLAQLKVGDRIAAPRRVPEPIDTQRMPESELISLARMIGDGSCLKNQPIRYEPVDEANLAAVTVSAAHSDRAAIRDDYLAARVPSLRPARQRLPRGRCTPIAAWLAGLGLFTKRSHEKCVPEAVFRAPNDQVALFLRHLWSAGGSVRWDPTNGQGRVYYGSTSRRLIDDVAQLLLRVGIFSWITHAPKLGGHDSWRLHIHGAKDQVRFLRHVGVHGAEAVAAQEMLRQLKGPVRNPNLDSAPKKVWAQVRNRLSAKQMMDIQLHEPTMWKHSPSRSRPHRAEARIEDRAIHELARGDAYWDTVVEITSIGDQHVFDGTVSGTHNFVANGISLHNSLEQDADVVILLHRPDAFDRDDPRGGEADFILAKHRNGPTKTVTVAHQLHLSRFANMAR

Protein RecA = biological target: T3, Protein RecA (Mycobacterium tuberculosis, UniProt P9WHJ3); assay: Fluorescence Cell-Free Homogeneous Dose Retest to Identify Inhibitors of RecA-Intein Splicing Activity. [Related pubchem assays (depositor defined):AID2097, AID2223, AID489010, AID492950]; format: functional
T3 sequence (P9WHJ3 whole entry): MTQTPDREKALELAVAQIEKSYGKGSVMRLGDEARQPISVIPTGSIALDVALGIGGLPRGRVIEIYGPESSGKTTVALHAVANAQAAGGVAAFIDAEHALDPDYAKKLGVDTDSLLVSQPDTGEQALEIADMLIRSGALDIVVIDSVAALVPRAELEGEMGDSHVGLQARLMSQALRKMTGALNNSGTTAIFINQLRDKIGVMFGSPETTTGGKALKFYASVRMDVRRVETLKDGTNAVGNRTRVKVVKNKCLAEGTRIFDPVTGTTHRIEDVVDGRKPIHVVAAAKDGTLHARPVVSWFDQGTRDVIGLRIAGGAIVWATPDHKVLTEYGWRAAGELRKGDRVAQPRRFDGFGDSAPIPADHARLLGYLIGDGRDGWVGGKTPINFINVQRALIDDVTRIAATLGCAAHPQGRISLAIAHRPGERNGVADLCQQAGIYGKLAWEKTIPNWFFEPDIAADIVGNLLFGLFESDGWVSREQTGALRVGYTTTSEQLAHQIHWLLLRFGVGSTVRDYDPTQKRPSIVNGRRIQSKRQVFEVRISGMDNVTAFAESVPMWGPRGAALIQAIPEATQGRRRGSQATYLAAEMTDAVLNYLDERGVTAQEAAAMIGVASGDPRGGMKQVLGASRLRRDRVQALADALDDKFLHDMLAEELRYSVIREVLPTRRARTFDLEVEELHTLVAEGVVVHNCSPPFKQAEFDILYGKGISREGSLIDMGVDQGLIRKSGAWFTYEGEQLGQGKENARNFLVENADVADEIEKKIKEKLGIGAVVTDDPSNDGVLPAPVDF

[3] = A549 cell cytotoxicity, dose response, cytotoxicity control, plate reader, cherry-pick, antagonist series (AID 743412); format: functional, cell-based
[4] = HepG2 cell cytotoxicity, dose response, cytotoxicity control, plate reader, cherry-pick, antagonist series (AID 743416); format: functional, cell-based
[5] = LGR2 antagonists, dose response, cell-based, HEK293, CRE-luciferase reporter, cherry pick, set 2 (AID 743343); format: functional;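 note: transfected cells were stimulated with diluted bursicon conditioned medium after compound addition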
[6] = HEK293 cell cytotoxicity, dose response, cytotoxicity control, plate reader, cherry-picked samples (AID 743446); format: functional, cell-based
[7] = cytotoxicity in HEK-293T cells, dose response, cytotoxicity control for TCR NF-kB inhibitor project, luminescence, T-cell screen hits (AID 489026); format: functional, cell-based;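 note: cells exposed to compound about 14 hours before the viability readout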
Paired box protein Pax-8 = Paired box protein Pax-8 (Homo sapiens, UniProt Q06710); assay: inhibitors of PAX8-driven TPO luciferase reporter, dose response, RMG-I cells, cherry-pick (AID 687027); format: functional, cell-based;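 note: luciferase reporter driven by Pax8 target thyroperoxidase promoter measured by SteadyGlo luminescence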
[8] = biological target: Heat shock protein HSP 90-alpha (Homo sapiens, UniProt P07900); format: functional, organism-based
Cytochrome P450 3A4 = Cytochrome P450 3A4 (Homo sapiens, UniProt P08684); details: Potency;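 note: confirmatory qHTS run detecting inhibitors and substrates of CYP3A4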
Large T antigen = Large T antigen (Simian virus 40, UniProt P03070); format: functional, Betapolyomavirus macacae;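 note: Confirmatory-stage PubChem screen for compounds that inhibit SV40 T antigen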
[9] = Luminescence Cell-Based Dose Confirmation HTS to Identify Activators of 5'UTR Stem-Loop Driven Alpha-Synuclein mRNA Translation in H4 Neuroglioblastoma Cells. [Related pubchem assays: 1829 (Project Summary), 1814 (Primary HTS)]; format: functional
[10] = Luminescence Cell-Based Dose Response HTS to Identify Activators of Luciferase Translation or Activity in H4 […] Cells. [Related pubchem assays: 1829 (Project Summary), 1814 (Primary HTS)]; format: functional
H4 = assay: Luminescence Cell-Based Dose Response HTS to Identify Activators of 5'UTR Stem-Loop Driven Prion Protein mRNA Translation in H4 Neuroglioblastoma Cells. [Related pubchem assays: 1829 (Project Summary), 1814 (Primary HTS)]; format: functional; details: Homo sapiens
[11] = biological target: T1, Heat shock factor protein 1; assay: inhibition of MG132-induced HSE-luciferase signal, confirmation, cell-based, NIH3T3, luminescence, dose retest (AID 2382); format: functional;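 note: NIH3T3 fibroblasts with HSF1-driven luciferase reporter stressed by proteasome inhibitor MG132; luminescence from HSF1-driven luciferase expression after 8 hours of MG132 stress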
[12] = Luminescence Cell-Based Dose Retest to Confirm Inhibitors of Cancer Stem Cells. [Related pubchem assays (depositor defined):AID2717, AID2721]; format: functional; details: Homo sapiens
[13] = inhibitors of firefly luciferase expression or activity, dose response, H4 neuroglioma cells, luminescence (AID 1990); format: functional, cell-based
[14] = Luminescence Cell-Based Dose Response HTS to Identify Inhibitors of 5'UTR Stem-Loop Driven Prion Protein mRNA Translation in H4 Neuroglioblastoma Cells. [Related pubchem assays: 1827 (Project Summary), 1813 (Primary HTS)]; format: functional
[15] = inhibitors of SNCA 5'UTR-driven reporter translation, confirmation, H4 neuroglioma cells, luminescence (AID 1988); format: functional, cell-based

Cytochrome P450 3A4, sequence (P08684 whole entry): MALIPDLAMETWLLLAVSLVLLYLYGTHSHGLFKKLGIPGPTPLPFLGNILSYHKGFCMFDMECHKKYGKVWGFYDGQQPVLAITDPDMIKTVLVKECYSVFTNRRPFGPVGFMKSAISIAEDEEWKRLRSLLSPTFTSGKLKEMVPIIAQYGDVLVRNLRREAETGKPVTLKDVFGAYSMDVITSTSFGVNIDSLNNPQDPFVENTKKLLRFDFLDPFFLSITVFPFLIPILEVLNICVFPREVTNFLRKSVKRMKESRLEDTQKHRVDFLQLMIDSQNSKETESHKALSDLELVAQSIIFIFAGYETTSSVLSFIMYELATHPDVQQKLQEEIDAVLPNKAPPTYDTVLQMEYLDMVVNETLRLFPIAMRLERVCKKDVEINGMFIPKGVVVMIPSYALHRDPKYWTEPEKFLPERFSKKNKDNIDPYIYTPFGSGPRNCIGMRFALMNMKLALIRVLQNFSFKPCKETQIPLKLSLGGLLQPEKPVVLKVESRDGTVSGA
Large T antigen, sequence (P03070 whole entry): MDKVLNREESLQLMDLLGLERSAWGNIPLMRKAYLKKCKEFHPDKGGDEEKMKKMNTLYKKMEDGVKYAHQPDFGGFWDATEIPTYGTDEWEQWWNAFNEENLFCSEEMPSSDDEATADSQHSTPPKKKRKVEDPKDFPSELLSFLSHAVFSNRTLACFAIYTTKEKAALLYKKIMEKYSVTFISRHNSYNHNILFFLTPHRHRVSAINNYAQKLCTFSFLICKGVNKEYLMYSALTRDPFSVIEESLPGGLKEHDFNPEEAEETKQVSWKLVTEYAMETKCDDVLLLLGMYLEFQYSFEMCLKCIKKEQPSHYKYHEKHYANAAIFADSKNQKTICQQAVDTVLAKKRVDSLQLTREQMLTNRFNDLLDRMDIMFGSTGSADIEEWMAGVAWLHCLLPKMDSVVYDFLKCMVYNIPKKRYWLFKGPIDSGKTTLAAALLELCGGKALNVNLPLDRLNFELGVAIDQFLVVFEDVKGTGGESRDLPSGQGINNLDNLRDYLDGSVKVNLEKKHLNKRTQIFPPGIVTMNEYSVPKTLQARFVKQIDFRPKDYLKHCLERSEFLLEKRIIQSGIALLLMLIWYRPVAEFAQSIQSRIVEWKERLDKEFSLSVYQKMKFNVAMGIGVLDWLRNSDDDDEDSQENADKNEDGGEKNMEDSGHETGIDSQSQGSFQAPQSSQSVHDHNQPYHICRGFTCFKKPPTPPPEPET
Paired box protein Pax-8, sequence (Q06710 whole entry): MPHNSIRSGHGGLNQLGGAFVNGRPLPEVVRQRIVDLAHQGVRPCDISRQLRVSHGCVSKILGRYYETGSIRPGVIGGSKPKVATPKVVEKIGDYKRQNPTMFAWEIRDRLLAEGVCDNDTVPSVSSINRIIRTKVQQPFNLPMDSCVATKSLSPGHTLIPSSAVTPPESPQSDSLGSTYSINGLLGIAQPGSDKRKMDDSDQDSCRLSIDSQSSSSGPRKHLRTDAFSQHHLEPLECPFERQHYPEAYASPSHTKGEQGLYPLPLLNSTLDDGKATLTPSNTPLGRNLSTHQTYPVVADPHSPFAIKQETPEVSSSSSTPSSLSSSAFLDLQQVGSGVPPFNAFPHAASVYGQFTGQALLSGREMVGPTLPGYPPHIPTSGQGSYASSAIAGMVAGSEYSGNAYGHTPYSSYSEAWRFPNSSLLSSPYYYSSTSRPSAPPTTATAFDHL

COc1ccc(-c2cc(C(F)(F)F)nc(S(=O)(=O)CCCC(=O)Nc3cccc(O)c3)n2)cc1OC
EC50 [1]: 7.17 µM (active) | AC50 [2]: 162 µM (active) | EC50 (Protein RecA): 11.3 µM (active) | AC50 [3]: 24.2 µM (active) | AC50 [4]: 12.7 µM (active) | AC50 [5]: 11.8 µM (active) | AC50 [6]: 10.5 µM (active)

Cc1ccc(C(=O)c2cc([N+](=O)[O-])ccc2N2CCCCC2)c(C)c1
IC50 [7]: > 80 µM (inactive) | AC50 (Paired box protein Pax-8): 0.929 µM (active)

Cc1ccc(-c2nc3cccnc3s2)cc1NS(=O)(=O)c1ccc2c(c1)OCCO2
AC50 [8]: 2.9 µM (active)

CC1(C)C(=O)C2C[C@]3(O)C4=CC(=O)OC(c5ccoc5)[C@]4(C)CCC3[C@](C)(C2=O)C1CC(=O)O (stereo partly specified)
AC50 (Cytochrome P450 3A4): 25.1 µM (inconclusive)

COc1ccc(N2CCN(C(=O)NC3CC(=O)N(c4ccc(OC)cc4)C3)CC2)cc1 (stereo unspecified)
IC50 (Large T antigen): 43.3 µM (active)

CCCCN1Cc2c(nc3cc(-c4ccco4)nn3c2O)C1=O
IC50 (Large T antigen): 35.6 µM (active)

Cc1nc(NCc2ccco2)c2c(C)c(C)sc2n1
EC50 [9]: > 120 µM (not active) | EC50 [10]: 8.42 µM (active) | EC50 (H4): > 120 µM (not active) | EC50 [11]: 1.22 µM (active) | AC50 [12]: 3.97 µM (active) | IC50 [7]: > 80 µM (inactive)

CC(=O)N1CC=CC1(CC(C)C)C(=O)NCc1ccc(C)o1 (stereo unspecified)
AC50 (Cytochrome P450 3A4): 15.8 µM (inconclusive)

COC(=O)[C@@]1(C)C=C[C@@H](Cc2ccccc2)N1C(C)=O
AC50 (Cytochrome P450 3A4): 31.6 µM (inconclusive)

COC(=O)Nc1ccc(S(=O)(=O)N2CCCc3ccccc32)cc1
EC50 [13]: 8.02 µM (active) | EC50 [14]: 7.32 µM (active) | EC50 [15]: 0.37 µM (active) | AC50 [12]: 0.362 µM (active) | IC50 [7]: > 80 µM (inactive)

c1ccc(-c2ccc3c(c2)NCCN3)cc1
EC50 [9]: 16.3 µM (active) | EC50 [10]: 25 µM (active) | EC50 (H4): 50.5 µM (active) | IC50 (Large T antigen): 7.54 µM (active)

CCCCNc1nc(C)nc2c1nc(-c1ccccc1)n2CCCCN(CC)CC
AC50 (Cytochrome P450 3A4): 12.6 µM (inconclusive)
